Here are results for three compounds from patent US9247759B2, “Identification of human T2R receptors that respond to bitter compounds that elicit the bitter taste in compositions, and the use thereof in assays to identify compounds that inhibit (block) bitter taste in compositions and use thereof” (SENOMYX, INC., priority 2007, dated 2016).

One test has as its target hT2R10 (Homo sapiens (Human), UniProt Q9NYW0). The experiment in a line: hT2R panel inhibition, transient HEK293 G16g44, agonist Strychnine 50 μM. It counts as cell-based. Conditions: HEK293, read-out: screening result against bitter receptor 10, compound at 25 μM; receptor activated to EC80 with the corresponding agonist.
For another test, the target named is hT2R4 (Homo sapiens (Human), UniProt Q9NYW5). The experiment in a line: hT2R panel inhibition, transient HEK293 G16g44, agonist Chloroquine pH6.5 5 mM. Conditions: HEK293, compound at 25 μM; receptor activated to EC80 with the corresponding agonist; class symbols; read-out: screening result against bitter receptor 4. It counts as cell-based. On the procedure:
Specifically, in order to evaluate the inhibitory selectivity of the Compound C compound, this compound was tested against 22 human T2Rs which were deorphaned by Senomyx. These receptors and the bitter ligands that activate these human T2Rs are reported in earlier patent applications which are incorporated by reference herein. These 22 human T2Rs are hT2R1, 3, 4, 5, 7, 8, 9, 10, 13, 14, 16, 44, 51, 54, 55, 61, 63, 64, 65, 67, 71 and 75. The amino acid and nucleic acid sequences of all of these T2Rs may be found in these earlier patent applications. These human T2Rs were each individually transiently transfected into HEK293 cells that stably express the promiscuous G protein G16g44 and functional assays were effected using these receptors as disclosed in these same patent applications. […] The ligands were used at EC80 concentration levels. The list of bitter ligands utilized and the tested ligand concentrations are contained in Table 5 of this example.
Relating to the foregoing, FIG. 5 contains experimental results wherein Compound C was tested with different agonist compounds. The inhibition activity is represented by the reduction of receptor activity in the presence of Compound C. […] These 13 hT2Rs are hT2R3, 7, 10, 14, 16, 44, 51, 55, 61, 63, 64, 65, and 71.

A further test addresses hT2R71 (Homo sapiens (Human), UniProt P59536). The experiment in a line: hT2R panel inhibition, transient HEK293 G16g44, agonist Picric Acid 10 μM. It counts as cell-based. Conditions: HEK293, compound at 25 μM; receptor activated to EC80 with the corresponding agonist; read-out: screening result against bitter receptor 71. The gist of the method:
(§1)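 Inhibition is read as loss of receptor activity caused by the test compound against an EC80 agonist challenge. Receptors from a 22-member human panel were introduced one at a time into host cells already stably expressing the chimeric G protein.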

The target in a further test is hT2R3 (Homo sapiens (Human), UniProt Q9NYW6). The experiment in a line: hT2R panel inhibition, transient HEK293 G16g44, agonist Chloroquine pH6.5 50 μM. The test is classed as cell-based. Conditions: HEK293, compound at 25 μM; receptor activated to EC80 with the corresponding agonist; read-out: screening result against bitter receptor 3. The gist of the method: as §1

In another test the target is hT2R7 (Homo sapiens (Human), UniProt Q9NYW3). The experiment in a line: hT2R panel inhibition, transient HEK293 G16g44, agonist Chloroquine pH6.5 10 mM. Conditions: HEK293, compound at 25 μM; receptor activated to EC80 with the corresponding agonist; read-out: screening result against bitter receptor 7. It counts as cell-based. The gist of the method: as §1
The target in the next test is hT2R64 (Homo sapiens (Human), UniProt P59538). The experiment in a line: hT2R panel inhibition, transient HEK293 G16g44, agonist Aristolochic Acid 1 μM. Conditions: HEK293, compound at 25 μM; receptor activated to EC80 with the corresponding agonist; read-out: screening result against bitter receptor 64. It counts as cell-based. The gist of the method: as §1
The target in the next test is hT2R61 (Homo sapiens (Human), UniProt P59537). The experiment in a line: hT2R panel inhibition, transient HEK293 G16g44, agonist Aristolochic Acid 25 nM. It counts as cell-based. Conditions: HEK293, compound at 25 μM; receptor activated to EC80 with the corresponding agonist; read-out: screening result against bitter receptor 61. The method, boiled down:
as §1

A further test relates to hT2R44. The experiment in a line: hT2R panel inhibition, transient HEK293 G16g44, agonist Denatonium 0.5 μM. The test is classed as cell-based, human. Conditions: compound at 25 μM; receptor activated to EC80 with the corresponding agonist. The gist of the method: as §1
The target in test [1] is T1, hT2R14 (Homo sapiens (Human), UniProt Q9NYV8). The experiment in a line: hT2R14 antagonist high-throughput FLIPR assay, stable cell line with G16g44, agonist aristolochic acid. The test is classed as cell-based. The method, boiled down:
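Compounds were co-applied with 3 μM aristolochic acid, a dose set to reach 70-80% of maximal hT2R14 activation. Read-out was FLIPR fluorescence in a stable HEK293 line co-expressing hT2R14 and G16g44.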

Another test concerns hT2R63. The experiment in a line: hT2R panel inhibition, transient HEK293 G16g44, agonist Caffeine 1 mM or Andrographolide 100 μM. Conditions: compound at 25 μM; receptor activated to EC80 with the corresponding agonist. It counts as cell-based, human. The gist of the method:
as §1

A further test has as its target hT2R75 (Homo sapiens (Human), UniProt P59540). The experiment in a line: hT2R panel inhibition, transient HEK293 G16g44, agonist Strychnine 1 μM. The test is classed as cell-based. Conditions: HEK293, read-out: screening result against bitter receptor 75, compound at 25 μM; receptor activated to EC80 with the corresponding agonist.
The next test concerns hT2R55. The experiment in a line: hT2R panel inhibition, transient HEK293 G16g44, agonist Cinchonine 150 μM. It counts as cell-based, human. Conditions: compound at 25 μM; receptor activated to EC80 with the corresponding agonist. The gist of the method: as §1
In another test the test system is hT2R67. The experiment in a line: hT2R panel inhibition, transient HEK293 G16g44, agonist Andrographolide 5 μM. It counts as cell-based, human. Conditions: compound at 25 μM; receptor activated to EC80 with the corresponding agonist. The gist of the method: as §1
In test [2] the target is T1, hT2R14. The experiment in a line: hT2R panel inhibition, transient HEK293 G16g44, agonist Aristolochic Acid 2 μM. It counts as cell-based. Conditions: HEK293, compound at 25 μM; receptor activated to EC80 with the corresponding agonist; read-out: screening result against bitter receptor 14. The method, boiled down:
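Agonist challenge was at EC80, with 0.5 mM andrographolide on hT2R8 and 2 μM aristolochic acid on hT2R14. Inhibition was measured in functional assays in HEK293 cells that stably carry the promiscuous G protein G16g44 and were transiently transfected with the individual receptor.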

The next test deals with hT2R65. The experiment in a line: hT2R panel inhibition, transient HEK293 G16g44, agonist Oleuropein 1 mM. The test is classed as cell-based, human. Conditions: compound at 25 μM; receptor activated to EC80 with the corresponding agonist. The gist of the method: as §1
The next test addresses hT2R16 (Homo sapiens (Human), UniProt Q9NYV7). The experiment in a line: hT2R panel inhibition, transient HEK293 G16g44, agonist Salicin 1 mM. It counts as cell-based. Conditions: HEK293, compound at 25 μM; receptor activated to EC80 with the corresponding agonist; read-out: screening result against bitter receptor 16. The method, boiled down:
as §1

Another test has as its system hT2R54. The experiment in a line: hT2R panel inhibition, transient HEK293 G16g44, agonist Ranitidine 5 mM. The test is classed as cell-based, human. Conditions: compound at 25 μM; receptor activated to EC80 with the corresponding agonist. The method, boiled down: as §1
Setting [3] is: read-out: IC50 on hT2R14 bitter receptor.

Like-named read-outs stand apart in the source and are kept apart here.

Sequence of hT2R3 (Q9NYW6 whole entry): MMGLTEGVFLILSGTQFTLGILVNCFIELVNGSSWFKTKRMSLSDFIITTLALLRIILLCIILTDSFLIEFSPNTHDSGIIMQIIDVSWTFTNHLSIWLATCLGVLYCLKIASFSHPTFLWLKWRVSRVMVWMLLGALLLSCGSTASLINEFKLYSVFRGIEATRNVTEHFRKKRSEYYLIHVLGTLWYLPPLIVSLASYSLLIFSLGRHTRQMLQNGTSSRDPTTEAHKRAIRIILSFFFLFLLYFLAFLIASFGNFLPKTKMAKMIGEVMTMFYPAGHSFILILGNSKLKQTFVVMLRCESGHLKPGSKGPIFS
Sequence of hT2R7 (Q9NYW3 whole entry): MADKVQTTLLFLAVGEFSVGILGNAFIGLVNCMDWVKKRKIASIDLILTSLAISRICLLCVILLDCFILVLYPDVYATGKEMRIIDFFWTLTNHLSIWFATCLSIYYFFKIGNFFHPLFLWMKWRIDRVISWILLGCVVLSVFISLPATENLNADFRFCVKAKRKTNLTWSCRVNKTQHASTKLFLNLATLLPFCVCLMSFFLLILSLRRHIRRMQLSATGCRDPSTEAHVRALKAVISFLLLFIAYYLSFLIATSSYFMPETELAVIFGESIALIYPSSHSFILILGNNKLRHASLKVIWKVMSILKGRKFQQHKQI
Sequence of hT2R4 (Q9NYW5 whole entry): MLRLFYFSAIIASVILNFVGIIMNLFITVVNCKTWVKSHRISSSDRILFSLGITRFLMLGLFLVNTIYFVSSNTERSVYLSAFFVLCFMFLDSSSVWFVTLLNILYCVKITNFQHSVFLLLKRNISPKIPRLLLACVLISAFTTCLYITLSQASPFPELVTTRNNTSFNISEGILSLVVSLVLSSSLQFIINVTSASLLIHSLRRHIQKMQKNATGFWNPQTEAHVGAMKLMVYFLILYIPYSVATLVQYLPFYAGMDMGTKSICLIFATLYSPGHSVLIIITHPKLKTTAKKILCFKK
Sequence of hT2R75 (P59540 whole entry): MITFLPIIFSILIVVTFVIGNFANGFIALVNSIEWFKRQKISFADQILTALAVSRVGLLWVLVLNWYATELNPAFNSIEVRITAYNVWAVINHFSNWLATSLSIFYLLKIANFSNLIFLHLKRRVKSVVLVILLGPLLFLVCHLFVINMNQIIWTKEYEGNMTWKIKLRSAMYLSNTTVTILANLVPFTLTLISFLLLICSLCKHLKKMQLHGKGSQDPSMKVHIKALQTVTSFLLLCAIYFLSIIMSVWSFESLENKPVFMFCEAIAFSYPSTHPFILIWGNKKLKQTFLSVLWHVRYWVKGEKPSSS
Sequence of hT2R71 (P59536 whole entry): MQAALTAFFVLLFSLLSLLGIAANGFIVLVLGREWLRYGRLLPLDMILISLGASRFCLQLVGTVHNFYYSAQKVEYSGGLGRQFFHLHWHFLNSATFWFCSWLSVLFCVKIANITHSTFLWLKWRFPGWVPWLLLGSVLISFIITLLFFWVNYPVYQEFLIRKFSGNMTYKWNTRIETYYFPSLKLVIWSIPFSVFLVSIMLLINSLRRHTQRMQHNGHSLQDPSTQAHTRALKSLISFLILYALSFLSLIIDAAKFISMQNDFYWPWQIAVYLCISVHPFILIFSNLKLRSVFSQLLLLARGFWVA
Sequence of hT2R61 (P59537 whole entry): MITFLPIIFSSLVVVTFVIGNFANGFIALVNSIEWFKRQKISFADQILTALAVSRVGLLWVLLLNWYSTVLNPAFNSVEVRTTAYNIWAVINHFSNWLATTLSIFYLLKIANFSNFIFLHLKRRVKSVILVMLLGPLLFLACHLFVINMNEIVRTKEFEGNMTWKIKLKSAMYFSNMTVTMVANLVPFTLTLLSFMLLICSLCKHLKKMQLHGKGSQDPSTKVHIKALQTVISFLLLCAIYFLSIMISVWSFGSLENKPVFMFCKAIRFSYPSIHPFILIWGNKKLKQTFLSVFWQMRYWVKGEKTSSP
T1 sequence (Q9NYV8 whole entry): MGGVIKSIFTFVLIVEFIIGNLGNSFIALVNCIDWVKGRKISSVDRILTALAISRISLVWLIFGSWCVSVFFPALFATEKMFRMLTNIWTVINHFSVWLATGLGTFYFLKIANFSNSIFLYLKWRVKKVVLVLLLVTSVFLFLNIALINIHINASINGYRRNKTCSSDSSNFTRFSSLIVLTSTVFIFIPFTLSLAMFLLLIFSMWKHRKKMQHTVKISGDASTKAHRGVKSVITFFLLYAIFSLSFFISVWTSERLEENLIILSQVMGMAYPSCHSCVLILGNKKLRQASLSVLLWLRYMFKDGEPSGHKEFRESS
Sequence of hT2R10 (Q9NYW0 whole entry): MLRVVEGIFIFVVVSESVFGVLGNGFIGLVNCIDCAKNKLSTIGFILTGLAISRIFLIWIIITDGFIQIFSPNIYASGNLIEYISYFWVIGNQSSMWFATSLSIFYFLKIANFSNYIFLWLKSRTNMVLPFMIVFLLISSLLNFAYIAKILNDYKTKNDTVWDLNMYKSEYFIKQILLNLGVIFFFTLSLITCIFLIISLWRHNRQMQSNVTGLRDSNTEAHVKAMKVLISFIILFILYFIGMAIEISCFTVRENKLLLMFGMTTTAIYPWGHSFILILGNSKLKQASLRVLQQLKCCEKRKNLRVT
Sequence of hT2R64 (P59538 whole entry): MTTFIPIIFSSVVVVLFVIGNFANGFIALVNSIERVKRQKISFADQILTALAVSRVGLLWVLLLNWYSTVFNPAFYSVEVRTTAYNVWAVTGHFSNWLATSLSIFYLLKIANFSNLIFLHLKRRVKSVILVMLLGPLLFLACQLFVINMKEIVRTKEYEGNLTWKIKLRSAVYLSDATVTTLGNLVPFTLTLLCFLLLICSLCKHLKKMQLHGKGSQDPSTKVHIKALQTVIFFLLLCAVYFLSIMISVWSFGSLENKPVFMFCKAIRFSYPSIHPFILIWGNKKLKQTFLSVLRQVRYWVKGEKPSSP
Sequence of hT2R16 (Q9NYV7 whole entry): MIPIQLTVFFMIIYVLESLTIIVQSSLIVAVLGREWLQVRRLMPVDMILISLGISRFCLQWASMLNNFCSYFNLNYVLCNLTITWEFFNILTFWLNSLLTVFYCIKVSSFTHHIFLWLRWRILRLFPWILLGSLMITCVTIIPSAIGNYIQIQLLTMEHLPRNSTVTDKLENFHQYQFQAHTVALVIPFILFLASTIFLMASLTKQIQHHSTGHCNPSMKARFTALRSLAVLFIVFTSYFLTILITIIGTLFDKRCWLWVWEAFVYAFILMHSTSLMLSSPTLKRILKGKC

As to `COc1ccccc1CN(Cc1ccco1)S(=O)(=O)c1ccc(C(=O)O)cc1` [Example 5-7, 4-(N-(furan-2-ylmethyl)-N-(2-methoxybenzyl)sulfamoyl)benzoic acid], the inhibition at 25 µM on hT2R10 is 20 to 40%; on hT2R4, 20 to 40%; on hT2R71 it was 40 to 60%; on hT2R3, 20 to 40%; on hT2R7 it was 20 to 40%; on hT2R64, above 80%. The figures for the inhibition at 25 µM on hT2R61, at hT2R75 and at hT2R14 [2] were above 80%, 20 to 40% and 40 to 60%, respectively. Moreover, in the test on hT2R44, the “screening result against bitter receptor 44” value is “++ (40% to 60% inhibition = ++)”. In addition, the IC50 on hT2R14 [1] (setting [3]) amounted to 12 µM. Besides, in the test on hT2R63, the “screening result against bitter receptor 63” value was “++++ (80% or greater inhibition = ++++)”. Moreover, the “screening result against bitter receptor 55” value with hT2R55 is “++++ (80% or greater inhibition = ++++)”. For the same compound, the “screening result against bitter receptor 67” value with hT2R67 is given as “+ (20% to 40% inhibition = +)”.
With `CCCN(Cc1ccc(OC)cc1)S(=O)(=O)c1ccc(C(=O)O)cc1` [Example 5-17, 4-(N-(4-methoxybenzyl)-N-propylsulfamoyl)benzoic acid], the “screening result against bitter receptor 65” value in the test with hT2R65 is recorded as “++ (40% to 60% inhibition = ++)”. The inhibition at 25 µM at hT2R4 is 20 to 40%; on hT2R71, 40 to 60%; on hT2R3, 20 to 40%; at hT2R7 it was 20 to 40%; on hT2R16, 20 to 40%; at hT2R61, above 80%. Besides, the inhibition at 25 µM on hT2R75 was 20 to 40%; on hT2R14 [2] it was above 80%. For the same compound, in the test on hT2R54, the “screening result against bitter receptor 54” value was “++ (40% to 60% inhibition = ++)”. In addition, the “screening result against bitter receptor 44” value in the test with hT2R44 was “+++ (60% to 80% inhibition = +++)”. Also, the IC50 at hT2R14 [1] (setting [3]) was 3.75 µM. Moreover, in the test on hT2R55, the “screening result against bitter receptor 55” value is recorded as “++++ (80% or greater inhibition = ++++)”.
Turning to `O=C(O)C1CCC(CN(Cc2ccc(F)cc2)S(=O)(=O)c2cccs2)CC1` (stereo not drawn) [Example 5-51, 4-((N-(4-fluorobenzyl)thiophene-2-sulfonamido)methyl)cyclohexanecarboxylic acid], the inhibition at 25 µM on hT2R10 was 20 to 40%; at hT2R4 it was 20 to 40%; at hT2R71, 40 to 60%; on hT2R3 it was 40 to 60%; on hT2R7, 20 to 40%; at hT2R16, 20 to 40%. The inhibition at 25 µM is 40 to 60% at hT2R64, above 80% on hT2R61, 20 to 40% at hT2R75 and above 80% on hT2R14 [2]. In addition, in the test on hT2R65, the “screening result against bitter receptor 65” value was “+ (20% to 40% inhibition = +)”. Besides, the “screening result against bitter receptor 44” value with hT2R44 is listed as “++ (40% to 60% inhibition = ++)”. Also, the half-inhibitory concentration (IC50) on hT2R14 [1] (Table C, read-out: hT2R14 IC50) was determined as 0.342 µM. Besides, the “screening result against bitter receptor 63” value in the test with hT2R63 is listed as “+++ (60% to 80% inhibition = +++)”. The “screening result against bitter receptor 55” value in the test with hT2R55 is given as “+++ (60% to 80% inhibition = +++)”.

In general, IC50 refers to the point on the concentration scale where inhibition reaches its midpoint.
